Laboratory results published in PMC9514659, “Giardia duodenalis: Flavohemoglobin is involved in drug biotransformation and resistance to albendazole” (PLoS Pathogens, 2022).

Biological target: T1, flavohemoglobin (gFlHb) (Giardia duodenalis, UniProt E2RTZ4)
T1 construct: gene hmpA; recombinant gFlHb fused to an N-terminal His6-tag
Experiment: UV-visible spectral titration of ferric heme at […] nm (also stimulates NADH oxidase activity)
Assay type: binding

T1 sequence (E2RTZ4 whole entry, the tested form may be a part): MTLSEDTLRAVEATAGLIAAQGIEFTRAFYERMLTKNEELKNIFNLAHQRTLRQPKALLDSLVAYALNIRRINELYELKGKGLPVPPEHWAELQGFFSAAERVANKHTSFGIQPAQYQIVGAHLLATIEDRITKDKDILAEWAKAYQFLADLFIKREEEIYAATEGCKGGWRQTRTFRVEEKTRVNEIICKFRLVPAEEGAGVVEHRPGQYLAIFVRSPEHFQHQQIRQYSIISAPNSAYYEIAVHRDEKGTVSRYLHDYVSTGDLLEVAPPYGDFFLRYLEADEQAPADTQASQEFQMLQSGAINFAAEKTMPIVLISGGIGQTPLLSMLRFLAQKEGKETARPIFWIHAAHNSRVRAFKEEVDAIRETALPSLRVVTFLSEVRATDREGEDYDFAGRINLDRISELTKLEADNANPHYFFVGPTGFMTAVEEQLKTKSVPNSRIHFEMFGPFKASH

| Compound | Kd [nM] |
| --- | --- |
| CCC[S+]([O-])c1ccc2[nH]c(NC(=O)OC)nc2c1 (centres unmarked) [ABZSO, albendazole sulfoxide] | 19 ± 8 |
| CCCSc1ccc2nc(NC(=O)OC)[nH]c2c1 [ABZ, albendazole] | 23 ± 9 |
